{
  "source": "patent US20230330093A1",
  "about": "“APPLICATION OF NITROGEN-CONTAINING SATURATED HETEROCYCLIC COMPOUND” (SHANGHAI PHARMACEUTICALS HOLDING CO., LTD., priority 2020, published 2023)",
  "test_system": "rhesus monkeys with spontaneous chronic kidney disease",
  "assay": "Safety tolerance study (adverse events, liver and renal function, food intake, body weight, hematology), 8-week administration",
  "type": "in vivo, Macaca mulatta (Rhesus Macaque)",
  "conditions": "1, 2, 5 mg/kg qd groups, 8-week administration period",
  "from_the_text": "Glucose and lipid metabolism and liver function: FPG, FRA, LDL-c, HDL-c, TG, TC, NT-proBNP, ALT, AST, TBIL, etc., twice before administration, once at weeks 4 and 8 respectively after administration;\nOther biochemical indicators and hematology testing, once each before and after administration;\nBody weight: once before administration, once a week during the administration period;\nHematology testing equipment: Siemens ADVIA 2120i Hematology Systems.\nNumber of observations: Observation was performed once a day.\nObservation method: observation in cage.\nObservation content: injection site, skin, hair, eyes, ears, nose, oral cavity, chest, abdomen, urogenital, limbs and other parts, as well as breathing, exercise, urinary, defecation and behavior changes.\nFeeding method: Food was supplied once at 8:009:00 in the morning, 10:00 in the morning, 2:00 in the afternoon, and 4:00 in the afternoon, respectively, to ensure that there was food in the food box and animals ate freely. The remaining feed was removed at 07:40-8:00 in the next day.\nFeeding amount: about 250-500 g/animal/day. In the experiment, it was ensured that there was feed in the food box for 24 hours, and the animals can eat freely.\nMethod for measuring food intake: The feed was estimated by a semi-quantitative method, and the amount of food given, the amount discarded and the remaining amount in food boxes were recorded every day. […]",
  "data": [
    {"smiles": "COC(=O)NCCCn1nc([C@@H](C)N(C(=O)[C@H]2CNCCO2)C2CC2)c2ccc(C)nc21.O=C(O)C[C@H](O)C(=O)O", "note": "[malate of compound of Formula I]", "values": [
      {"measurement": "adverse events related to administration", "result": "no adverse events related to administration"},
      {"measurement": "changes in liver function, renal function, food intake, body weight, hematological indicators", "result": "no significant changes were observed"}
    ]}
  ]
}
